Measurements as given in ChEMBL document CHEMBL1201862, “PubChem BioAssay data set” (2004).
Values joined by “and” are separate entries in the source; they are usually repeats but may differ in a detail not shown here. Equal entries are not always repeated.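 Where inhibition never reached the appropriate level, the endpoint shown equals the highest concentration tested. Otherwise, values were interpolated linearly from a five-concentration, 48-hour dose response in 96-well plates. GI50: concentration for 50% inhibition of growth.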 Active and inactive are the calls of the source. No stated cut-off is given here; in the data, active = GI50 up to about 1.1 µM and inactive = higher. Where a SMILES comes first, the peptide text is derived from it. [ ]: non-standard residue; d: D form. The star is where a group is joined. Iva = CC[C](C)(N)C(=O)O; Boc = CC(C)(C)OC(=O)*; X54 = C1CCC(=NO*)C1

Assays:
Test in all cases: growth of human tumour cells (NCI), 48 h
[1] = system: CAKI-1
[2] = system: CCRF-CEM
[3] = system: HCC 2998
[4] = system: KM12
[5] = system: MOLT-4
[6] = system: NCI-H460
[7] = system: OVCAR-3
[8] = system: OVCAR-5
[9] = system: OVCAR-8
[10] = system: SK-MEL-28
[11] = system: SN12C
[12] = system: SNB-75
[13] = system: UO-31
[14] = system: A549
[15] = system: EKVX
[16] = system: HT-29
[17] = system: LOX IMVI
[18] = system: OVCAR-4
[19] = system: SF-539
[20] = system: UACC-257

Measured: GI50

CCC(C)(NC(=O)C(C)NC(=O)OC(C)(C)C)C(=O)NC(C)C(=O)NC(C)(CC)C(=O)ON=C1CCCC1 (stereo unspecified) (Boc-A[Iva]A[Iva]-X54; configuration not given here)
inactive: [1] > 100 µM | [2] > 100 µM | [3] > 100 µM | [4] > 100 µM | [5] 29.9 µM | [6] > 100 µM | [7] > 100 µM | [8] > 100 µM | [9] > 100 µM | [10] > 100 µM | [11] > 100 µM | [12] > 100 µM | [13] > 100 µM

COc1ccc(-c2c3c(nc4nc(SCC(=O)c5ccc(Br)cc5)nc(N)c24)CCCC3)cc1OC
inactive: [14] > 100 µM | [1] 79.6 µM | [2] > 100 µM | [15] 84.1 µM | [16] 41.4 µM | [4] > 100 µM | [17] > 100 µM | [5] > 10 µM | [6] > 100 µM | [7] > 100 µM | [18] 33.7 µM | [8] > 100 µM | [9] 33.5 µM | [19] > 100 µM | [10] 64 µM | [11] > 100 µM | [12] 14.9 µM | [20] > 100 µM | [13] > 100 µM

COc1ccc(/C=N/n2cnc3c(c2=O)SC(=C(C#N)C#N)N3c2ccccc2)cc1
inactive: [14] > 100 µM | [2] > 100 µM | [3] > 100 µM | [16] > 100 µM | [4] > 100 µM | [5] > 100 µM | [6] > 100 µM | [7] > 100 µM | [8] > 100 µM | [9] > 100 µM | [19] 36.2 µM | [10] 90.8 µM | [12] 27.6 µM | [20] > 100 µM | [13] > 100 µM

O=C1C(Cl)N(c2ccc(Cl)cc2)C1c1c[nH]c2ccccc12 (stereo unspecified)
inactive: [14] 33.7 µM | [2] 13 µM | [15] 16.9 µM | [16] 17.1 µM | [4] 27 µM | [5] 14.7 µM | [6] 15 µM | [7] 17.6 µM | [18] 39.7 µM | [9] 31.3 µM | [19] 18.2 µM | [10] 24.8 µM | [11] 17.7 µM | [12] 19.1 µM | [20] 16.8 µM | [13] 11.6 µM

COc1cc2cc[n+]3c(C)c4cc(OC)c(OC)cc4c([O-])c3c2cc1OC
inactive: [14] > 100 µM | [1] > 100 µM | [2] 27 µM | [15] > 100 µM | [3] > 100 µM | [16] 41.2 µM | [4] 70.1 µM | [5] 48.8 µM | [6] > 100 µM | [7] 3.44 µM | [18] 85.7 µM | [8] > 100 µM | [9] > 100 µM | [19] 36.9 µM | [10] 64.3 µM | [11] 32.7 µM | [12] 33 µM | [20] 30.8 µM | [13] > 100 µM

CCOC(=O)c1ccc(N2C(=O)/C(=C/c3ccc(N(CCC#N)CCC#N)cc3)N=C2c2cc([N+](=O)[O-])ccc2Cl)cc1
inactive: [14] > 100 µM | [1] > 100 µM | [2] > 100 µM | [15] > 100 µM | [3] > 100 µM | [4] > 100 µM | [17] > 100 µM | [5] > 100 µM | [7] > 100 µM | [18] > 100 µM | [8] > 100 µM | [9] > 100 µM | [19] > 100 µM | [10] > 100 µM | [11] > 100 µM | [13] > 100 µM

C[C@@H]1C[C@]2(C[C@@H](C)[C@H]3C(C[C@@]4(C)CCC[C@@H]5C6=C[C@H](CCC34C)OC6=CC(=O)OC5(C)C)O2)OC1=O (stereo partly specified)
inactive: [14] > 51.5 µM | [1] > 51.5 µM | [2] > 51.5 µM | [15] > 51.5 µM | [3] > 51.5 µM | [16] > 51.5 µM | [4] > 51.5 µM | [17] > 51.5 µM | [5] > 51.5 µM | [6] > 51.5 µM | [7] > 51.5 µM | [18] > 51.5 µM | [8] > 51.5 µM | [9] > 51.5 µM | [19] > 51.5 µM | [11] > 51.5 µM | [12] 13.1 µM | [20] > 51.5 µM | [13] > 51.5 µM

CC(=O)c1ccc(Oc2ccc(/C(C)=N\N=C(N)N)cc2)cc1
inactive: [14] 4.12 µM | [2] 1.91 µM | [15] 4.51 µM | [3] 8.41 µM | [16] 1.67 µM | [17] 3.4 µM | [5] 2.25 µM | [6] 2.77 µM | [7] 1.99 µM | [18] 10.6 µM | [8] 4.68 µM | [9] 3.12 µM | [19] 1.72 µM | [10] 4.68 µM | [11] 3.17 µM | [12] 1.47 µM | [20] 5.68 µM

OCC(O)COc1ccc(Br)cc1 (stereo unspecified)
inactive: [14] 50.7 µM | [1] > 100 µM | [2] > 100 µM | [15] > 100 µM | [3] > 100 µM | [16] > 100 µM | [4] > 100 µM | [17] > 100 µM | [6] > 10 µM | [7] > 100 µM | [18] > 100 µM | [8] > 100 µM | [9] > 100 µM | [19] > 100 µM | [10] > 100 µM | [11] 60.3 µM | [12] > 100 µM | [20] > 100 µM | [13] > 100 µM

CC(Oc1ccc(Oc2cnc3ccc(Cl)cc3n2)cc1)C(=O)O (stereo unspecified)
inactive: [14] 68.5 µM | [1] > 100 µM | [2] > 74.1 µM | [15] > 100 µM | [17] 51.8 µM | [5] 15.1 µM | [6] 60.4 µM and 19.6 µM | [7] > 100 µM | [18] > 100 µM | [8] > 100 µM | [9] > 82.4 µM | [19] > 100 µM | [12] 47.3 µM | [13] > 95.9 µM

CSc1cc(=O)n2c3ccccc3c3ccnc1c32
inactive: [14] > 100 µM | [2] > 100 µM | [15] 24.4 µM | [3] > 100 µM | [16] > 100 µM | [4] > 82.2 µM | [17] > 100 µM | [5] > 100 µM | [6] 57 µM | [7] > 100 µM | [18] > 100 µM | [8] 97.1 µM | [9] > 67.9 µM | [19] > 50 µM | [10] > 100 µM | [11] > 100 µM | [12] > 69.3 µM | [20] > 54.5 µM | [13] 45.6 µM
